Experiments:
Assay type in all cases: physicochemical
[1] = Competitive slurry in mixtures of water and isopropanol; details: 25° C.
Procedure: Competitive slurry in mixtures of water and isopropanol indicates the phase boundary between the crystalline Form I and crystalline Form II is between water activity of 0.66-0.78 at 25° C. At water activity above 0.78, crystalline Form II is the stable form, whereas at water activity below 0.66, crystalline Form I is the stable form

[2] = DVS water vapor desorption analysis; details: 25° C.
Procedure: DVS: The following method was used for the water vapor desorption analysis using a DVS Advantage (Surface Measurement Systems). • Temperature: 25° C. • RH program: 95, 90, 80, 70, 60, 50, 40, 35, 30, 20, 10, 0%. • Dm/dt (%/min.): 0.0005 • Minimum equilibrium time: 120 minutes • Maximum equilibrium time: 2000 minutes
The solid was also subjected to DVS measurement and lost about 11% water at 0% RH.

[3] = DSC thermogram (dehydration event); details: 20 to 180° C. at 10° C./min, pin-hole lid
Procedure: DSC: DSC thermograms were obtained using a TA Instruments DSC Q2000. Approximately 1-2 mg of sample was weighed into a Tzero aluminum pan and hermetically sealed with a Tzero hermetic lid. For crystalline Form II samples, the lid was punched with a pin-hole. • DSC: Sample was scanned from 20 to 180° C. at 10° C./min.
(§1) In another experiment, about 2 g of crystalline Form I of Compound A from Example 1 was weighed into a 20 mL scintillation vial and 4 mL of Milli-Q water was added into the vial. The resulting suspension was stirred with a spatula and left at room temperature for one day. The residual was then filtered with vacuum and dried in a vacuum oven at room temperature for about 20 hours. XRPD was taken after drying and Form II was confirmed since it was essentially the same as FIG. 3, top panel. […] The dried sample was then dehydrated in a TGA pan at 80° C. (ramp from room temperature to 80° C. at 10° C./min and then isothermal for 2 min).

[4] = Thermogravimetric analysis (TGA); details: heated from room temperature at 10° C./minute; consistent with a dihydrate
Procedure: TGA: Approximately 5-10 mg sample was heated from room temperature to 250° C. at 10° C./minute.
as §1

[5] = Dehydration in a TGA pan at 80° C., form checked by XRPD and DSC; details: ramp to 80° C. at 10° C./min then isothermal for 2 min
Procedure: as §1

SMILES | water activity at which the form is the stable form [1] | water lost in DVS ([2]; 0% RH) | water loss in DVS at or above 20% RH ([2]; at or above 20% RH) | possible dehydration event in DSC [3] | water activity at which the form is the stable form ([1]; dihydrate) | TGA weight loss [4] [%] | solid form after dehydration [5]
C[C@@H](O)[C@@H](C(N)=O)N1C[C@@]2(CCCN2C(=O)OC(C)(C)C)C1=O [crystalline Form I of Compound A, tert-butyl (S)-2-((2S,3R)-1-amino-3-hydroxy-1-oxobutan-2-yl)-1-oxo-2,5-diazaspiro[3.4]octane-5-carboxylate] | below 0.66 | – | – | – | – | – | –
C[C@@H](O)[C@@H](C(N)=O)N1C[C@@]2(CCCN2C(=O)OC(C)(C)C)C1=O [crystalline Form II of Compound A, tert-butyl (S)-2-((2S,3R)-1-amino-3-hydroxy-1-oxobutan-2-yl)-1-oxo-2,5-diazaspiro[3.4]octane-5-carboxylate dihydrate] | – | about 11% | did not lose water | about 82 °C | above 0.78 | 9.6 | mostly crystalline Form I with residual amorphous content and very small amount of crystalline Form II
